Test results taken from patent US20030186345A1, “Macromolecular enzyme substrates” (priority 2003, published 2003).

Tests used:
salivary amylase [1] = molecular target: T1, salivary amylase (Homo sapiens, UniProt P0DUB6); assay: Amylase assay, Km determination, salivary amylase; format: biochemical
T1 construct: purchased Sigma (St. Louis, Mo.)
T1 sequence (P0DUB6 16-511): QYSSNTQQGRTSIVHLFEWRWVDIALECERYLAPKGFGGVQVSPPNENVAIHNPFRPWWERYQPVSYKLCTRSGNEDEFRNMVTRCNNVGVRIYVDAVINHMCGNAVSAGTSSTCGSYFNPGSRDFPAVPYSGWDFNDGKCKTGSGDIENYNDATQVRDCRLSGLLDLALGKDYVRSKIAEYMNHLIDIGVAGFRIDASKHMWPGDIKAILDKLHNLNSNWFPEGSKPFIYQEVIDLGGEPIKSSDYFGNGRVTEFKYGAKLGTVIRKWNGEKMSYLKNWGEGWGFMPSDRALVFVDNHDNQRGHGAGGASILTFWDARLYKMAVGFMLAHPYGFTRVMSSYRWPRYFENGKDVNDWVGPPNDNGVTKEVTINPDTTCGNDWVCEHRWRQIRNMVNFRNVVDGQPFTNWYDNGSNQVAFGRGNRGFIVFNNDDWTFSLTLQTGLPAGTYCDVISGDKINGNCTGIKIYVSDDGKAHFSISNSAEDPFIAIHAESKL
Procedure: (§1) Amylase assays using oligosaccharide substrates were automated using a Cobas Fara analyzer (Roche, Basel, Switzerland). Unless indicated, assay temperature was 37° C., and absorbance changes were measured at 405 nm every minute over a 20 minute period. Assay buffer was either 52.5 mmol/L 4-(2-hydroxyethyl)-1-piperazine-ethanesulfonic acid (HEPES) buffer, pH 7.15, 87 mmol/L sodium chloride, 12.6 mmol/L magnesium chloride, 0.075 mmol/L calcium chloride (HEPES buffer) or 50 mmol/L MES, pH 6.0, 350 mmol/L sodium chloride, 6 mmol/L calcium acetate, 900 mmol/L KSCN (MES buffer). Amylases were diluted into assay buffer containing 1 mg/mL rabbit albumin. Final reaction volumes were 200 μL and consisted of 3 solutions, R1, R2, and R3. […] Depending upon the assay, R2 and R3 contained either amylase or substrate. R1 and R2 solutions were mixed for 10 seconds prior to the addition of R3. For immunoinhibition studies, antibodies were preincubated with amylase (R2) for 30 minutes at room temperature prior to the addition of substrate (R3). Unless indicated, final concentrations of MABs were 10 mg/L. Reaction blanks were determined by measuring the absorbance of substrate or enzyme alone at 405 nm. When EtG7pNP or mPEG-EtG7pNP were used as substrates, α-glucosidase was included in the blank measurement. Differences between the test samples and reagent blanks were determined. Activity of stock solutions of amylase was based on activity measured with a Hitachi 917 analyzer using a Roche kit (Cat. No 1876473) (Indianapolis, Ind.) which uses EtG7pNP as the substrate. For Km determinations, 4 or 5 different substrate concentrations (0.05 mmol/L to 6 mmol/L) with salivary (4-20 U/L) or pancreatic (4-40 U/L) amylase were used.

pancreatic amylase [2] = molecular target: T2, pancreatic amylase (Homo sapiens, UniProt P04746); assay: Amylase assay, Km determination, pancreatic amylase; format: biochemical
T2 construct: purchased Scripps Laboratories (San Diego, Calif.)
T2 sequence (P04746 16-511): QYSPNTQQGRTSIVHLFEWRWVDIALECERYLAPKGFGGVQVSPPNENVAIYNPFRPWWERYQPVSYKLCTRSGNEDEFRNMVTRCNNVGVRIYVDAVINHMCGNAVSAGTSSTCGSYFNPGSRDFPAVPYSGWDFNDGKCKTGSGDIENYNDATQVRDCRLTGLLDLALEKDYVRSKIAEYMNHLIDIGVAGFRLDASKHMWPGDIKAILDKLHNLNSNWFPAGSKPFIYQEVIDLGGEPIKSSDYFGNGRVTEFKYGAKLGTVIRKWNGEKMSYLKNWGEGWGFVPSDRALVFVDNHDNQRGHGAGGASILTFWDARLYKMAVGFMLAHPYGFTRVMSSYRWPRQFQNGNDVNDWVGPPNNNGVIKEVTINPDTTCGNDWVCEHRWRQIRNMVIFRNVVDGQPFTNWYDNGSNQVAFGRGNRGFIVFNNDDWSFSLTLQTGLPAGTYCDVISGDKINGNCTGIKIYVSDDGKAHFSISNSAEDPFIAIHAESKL
Procedure: as §1, with “Assay buffer was either 52.5 mmol/L 4-(2-hydroxyethyl)-1-piperazine-ethanesulfonic acid (HEPES) buffer, pH 7.15, 87 mmol/L sodium chloride, 12.6 mmol/L magnesium chloride, 0.075 mmol/L calcium chloride (HEPES buffer) or 50 mmol/L MES, pH 6.0, 350 mmol/L sodium chloride, 6 mmol/L calcium acetate, 900 mmol/L KSCN (MES buffer).” left out

salivary amylase [3] = molecular target: T1, salivary amylase; assay: Extent of cleavage of substrates by excess salivary amylase; format: biochemical
Procedure: Substrates were diluted into HEPES buffer and absorbances were recorded between 250 nm and 500 nm. To determine the maximum amount of substrate that could be cleaved with amylase, substrates were incubated with 60 units/mL of salivary amylase. When EtG7pNP and mPEG-EtG7pNP were used, 4 units/mL of α-glucosidase were included in the incubation.
To determine the maximal amount of mPEG-coupled and uncoupled substrate that could be cleaved by amylase, substrates were incubated with excess salivary amylase and the amount of free chromophore released was determined by measuring absorptions between 250 nm and 500 nm during amylase digestion. […] Incubations were monitored until endpoints of reactions were approached. α-Glucosidase was included in the incubation when EtG7pNP and mPEG-EtG7pNP were used as substrates.

salivary amylase [4] = molecular target: T1, salivary amylase; assay: Immunoinhibition by polyclonal antiamylase antisera, salivary amylase; format: biochemical
Procedure: (§2) Amylase assays using oligosaccharide substrates were automated using a Cobas Fara analyzer (Roche, Basel, Switzerland). Unless indicated, assay temperature was 37° C., and absorbance changes were measured at 405 nm every minute over a 20 minute period. Assay buffer was either 52.5 mmol/L 4-(2-hydroxyethyl)-1-piperazine-ethanesulfonic acid (HEPES) buffer, pH 7.15, 87 mmol/L sodium chloride, 12.6 mmol/L magnesium chloride, 0.075 mmol/L calcium chloride (HEPES buffer) or 50 mmol/L MES, pH 6.0, 350 mmol/L sodium chloride, 6 mmol/L calcium acetate, 900 mmol/L KSCN (MES buffer). Amylases were diluted into assay buffer containing 1 mg/mL rabbit albumin. […] Unless indicated, final concentrations of MABs were 10 mg/L. Reaction blanks were determined by measuring the absorbance of substrate or enzyme alone at 405 nm. […] Differences between the test samples and reagent blanks were determined. Activity of stock solutions of amylase was based on activity measured with a Hitachi 917 analyzer using a Roche kit (Cat. No 1876473) (Indianapolis, Ind.) which uses EtG7pNP as the substrate. […]
(§3) The effects of two different polyclonal antiamylase immunoglobulin preparations on salivary and pancreatic amylase activity using mPEG-coupled and uncoupled substrates were tested. […] 100% amylase activity was determined in the absence of any antibody.

pancreatic amylase [5] = molecular target: T2, pancreatic amylase; assay: Immunoinhibition by polyclonal antiamylase antisera, pancreatic amylase; format: biochemical
Procedure: as §2, §3

salivary amylase [6] = molecular target: T1, salivary amylase; assay: Immunoinhibition by MABs, salivary amylase, oligosaccharide substrates; format: biochemical; conditions: salivary isoenzyme, 20 U/I (G5, G7 substrates) or 600 U/I (G3 substrates), 100% = no MAB; for % activity with MAB 66C7 / % activity with MAB 88E8: MAB 10 mg/L
Procedure: as §1
When both MABs were used, MAB 88E8 concentrations were varied in the presence of 10 mg/L MAB 66C7. At an antibody concentration of 10 mg/L, MAB 88E8 inhibits 98% of salivary amylase activity in HEPES buffer and 34% of salivary amylase activity in MES buffer. MAB 66C7 increases salivary amylase activity in HEPES buffer and has no effect on salivary amylase activity in MES buffer. Using a mixture of MABs 88E8 and 66C7 at concentrations of […], >99% of salivary amylase activity is inhibited in HEPES buffer and 73% of salivary amylase activity is inhibited in MES buffer. When the pH of the MES buffer was increased from 6.0 to 6.5 and the concentration of KSCN was decreased from 900 mmol/L to 300 mmol/L, >97% of salivary amylase activity was inhibited by MAB 88E8.

pancreatic amylase [7] = molecular target: T2, pancreatic amylase; assay: Immunoinhibition by MABs, pancreatic amylase, oligosaccharide substrates; format: biochemical; conditions: pancreatic isoenzyme, 40 U/I (G5, G7 substrates) or 400 U/I (G3 substrates), 100% = no MAB; for % activity with MAB 66C7 / % activity with MAB 88E8: MAB 10 mg/L
Procedure: as §1

[8] = tested on: pancreatic and salivary amylase; assay: Lag phase of amylase reaction; format: biochemical, human; conditions: purified pancreatic and salivary amylase; Cobas Fara analyzer
Procedure: as §2, with “albumin. Final reaction volumes were 200 μL and consisted of 3 solutions, R1, R2, and R3. […] Depending upon the assay, R2 and R3 contained either amylase or substrate. R1 and R2 solutions were mixed for 10 seconds prior to the addition of R3.” for “albumin.”

[9] = 37° C., pH 6.5 in MES buffer containing 300 mM KSCN

Compound	Km (salivary amylase [1]; 37° C., HEPES buffer pH 7.15) [µM]	Km (pancreatic amylase [2]; 37° C., HEPES buffer pH 7.15) [µM]	Substrate cleaved by salivary amylase and α-glucosidase (salivary amylase [3]; digestion for 60 minutes) [%]	Fold lower concentration of antibody inhibiting cleavage than for G3ClpNP (salivary amylase [4]) [fold]	Fold lower concentration of antibody inhibiting cleavage than for G3ClpNP (pancreatic amylase [5]) [fold]	% activity with MAB 88E8 + 66C7 (salivary amylase [6]) [%]	% activity with MAB 66C7 (salivary amylase [6]) [%]	% activity with MAB 88E8 (salivary amylase [6]) [%]	% activity with MAB 88E8 + 66C7 (pancreatic amylase [7]) [%]	% activity with MAB 66C7 (pancreatic amylase [7]) [%]	% activity with MAB 88E8 (pancreatic amylase [7]) [%]	Km (salivary amylase [1]; 25° C., HEPES buffer pH 7.15) [µM]	Km (salivary amylase [1]; [9]) [µM]	Km (pancreatic amylase [2]; 25° C., HEPES buffer pH 7.15) [µM]	Km (pancreatic amylase [2]; [9]) [µM]	CNP released by salivary amylase (salivary amylase [3]; excess salivary amylase, 40 minutes at room temperature) [%]	Lag phase, time to reach maximal rates [8]
CC1OC[C@H]2O[C@H](O[C@H]3[C@H](O)[C@@H](O)[C@@H](O[C@H]4[C@H](O)[C@@H](O)[C@@H](O[C@H]5[C@H](O)[C@@H](O)[C@@H](O[C@H]6[C@H](O)[C@@H](O)[C@@H](O[C@H]7[C@H](O)[C@@H](O)[C@@H](O[C@H]8[C@H](O)[C@@H](O)[C@@H](Oc9ccc([N+](=O)[O-])cc9)O[C@@H]8CO)O[C@@H]7CO)O[C@@H]6CO)O[C@@H]5CO)O[C@@H]4CO)O[C@@H]3CO)[C@H](O)[C@@H](O)[C@@H]2O1 (stereo partly drawn) [EtG7pNP, 4,6-O-ethylidene p-nitrophenyl-α-D-maltoheptaoside]	130	170	~90	> 50	~3	2	105	6	96	105	96						
O=[N+]([O-])c1ccc(O[C@H]2O[C@H](CO)[C@@H](O[C@H]3O[C@H](CO)[C@@H](O[C@H]4O[C@H](CO)[C@@H](O)[C@H](O)[C@H]4O)[C@H](O)[C@H]3O)[C@H](O)[C@H]2O)c(Cl)c1 [Substrate G3ClpNP, 2-chloro-p-nitrophenol-α-D-maltotrioside]	6900	2200				1	104	3	103	117	103	4600	2000	1300	610	~90	little or no lag phase
